# Assay results from EP4650002A1 (Ludwig-Maximilians-Universität, priority 2024, dated 2025).
# Molecular target: T1, human TLX (Homo sapiens, UniProt Q9Y466)
# T1 construct: expressed in transfected cells; host or cells: HEK293T
# Assay: Gal4 hybrid reporter gene assay (TLX modulation)
# Format: cell-based
# Parameters: key to relative reporter activity: fraction of DMSO control (DMSO = 1)
# Details: for relative reporter activity: DMSO control = 1; for EC50: Gal4-TLX hybrid reporter in HEK293T cells, 16 h incubation
# Method: In the Tables, the TLX relative reporter activity is expressed as EC50 (in µM) for each listed compound. "EC50" refers to a measure of the concentration of a compound which induces a biological response halfway between the baseline and maximum after a specified exposure time. […] The EC50 is measured via a hybrid reporter gene assay, employing the transfection of a reporter (firefly luciferase with Gal4 response element), a control gene (Renilla luciferase), a transcriptional activator (Gal4-VP16) and a hybrid receptor consisting of the TLX ligand binding domain (LBD) and the Gal4 DNA binding domain (DBD).
# Hybrid reporter gene assays. […] After 24 h, medium was changed to Opti-MEM without supplements and cells were transiently transfected using Lipofectamine LTX reagent (Invitrogen, Carlsbad, CA, USA) according to the manufacturer's protocol. Five hours after transfection, cells were incubated with the test compounds in Opti-MEM supplemented with penicillin (100 U/mL), streptomycin (100 µg/mL) and 0.1% DMSO for 16 h before luciferase activity was measured using the Dual-Glo Luciferase Assay System (Promega) according to the manufacturer's protocol on a Tecan Spark luminometer (Tecan Deutschland GmbH, Crailsheim, Germany). Firefly luminescence was divided by Renilla luminescence and multiplied by 1000 resulting in relative light units (RLU) to normalize for transfection efficiency and cell growth. Fold activation was obtained by dividing the mean RLU of test compound by the mean RLU of the untreated control. All samples were tested in at least three biologically independent experiments in duplicates. For dose-response curve fitting and calculation of EC50 values, the equation "[Agonist] vs. response -- Variable slope (four parameters)" was used in GraphPad Prism (version 7.00, GraphPad Software, La Jolla, CA, USA).
# [1] = minimal remaining or maximum reporter activity after treatment, in brackets below the EC50, <1 agonism, >1 inverse agonism
# T1 sequence (Q9Y466 155-383 limits assumed): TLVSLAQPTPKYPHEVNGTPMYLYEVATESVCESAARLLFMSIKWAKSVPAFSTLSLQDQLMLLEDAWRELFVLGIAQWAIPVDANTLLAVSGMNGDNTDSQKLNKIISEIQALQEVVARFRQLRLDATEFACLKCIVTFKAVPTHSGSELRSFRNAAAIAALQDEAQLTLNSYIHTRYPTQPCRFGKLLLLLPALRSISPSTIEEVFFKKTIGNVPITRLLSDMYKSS
SMILES,EC50 [µM],relative reporter activity [1],also measured
"Cc1cn(-c2cc(NC(=O)c3cccc4ccccc34)cc(C(F)(F)F)c2)cn1 [compound 6, N-(3-(4-methyl-1H-imidazol-1-yl)-5-(trifluoromethyl)phenyl)-1-naphthamide]",,,relative reporter activity (at 3 µM): (0.79±0.03 at 3 µM)
"CCOc1cc(C(=O)Nc2cc(-n3cnc(C)c3)cc(C(F)(F)F)c2)c2ccccc2n1 [compound 8, 2-ethoxy-N-(3-(4-methyl-1H-imidazol-1-yl)-5-(trifluoromethyl)phenyl)quinoline-4-carboxamide]",1.1 ± 0.3,0.57±0.04,
"Cc1cn(-c2cc(NC(=O)c3ccncc3)cc(C(F)(F)F)c2)cn1 [compound 11, N-(3-(4-methyl-1H-imidazol-1-yl)-5-(trifluoromethyl)phenyl)isonicotinamide]",,,relative reporter activity (at 20 µM): (0.41±0.05 at 20 µM)
"Cc1cn(-c2cc(NC(=O)c3ccnc(Cl)c3)cc(C(F)(F)F)c2)cn1 [compound 12, 2-chloro-N-(3-(4-methyl-1H-imidazol-1-yl)-5-(trifluoromethyl)phenyl)-isonicotinamide]",,,relative reporter activity (at 10 µM): (0.71±0.05 at 10 µM)
"Cc1cn(-c2cc(NC(=O)c3ccccc3)cc(C(F)(F)F)c2)cn1 [compound 14, N-(3-(4-methyl-1H-imidazol-1-yl)-5-(trifluoromethyl)phenyl)benzamide]",8 ± 1,0.38±0.08,
"Cc1cn(-c2cc(NC(=O)c3ccc(Cl)cc3)cc(C(F)(F)F)c2)cn1 [compound 15, 4-chloro-N-(3-(4-methyl-1H-imidazol-1-yl)-5-(trifluoromethyl)phenyl)benzamide]",2.3 ± 0.3,0.41±0.05,
"Cc1cn(-c2cc(NC(=O)c3ccc(Cl)c(Cl)c3)cc(C(F)(F)F)c2)cn1 [compound 16, 3,4-dichloro-N-(3-(4-methyl-1H-imidazol-1-yl)-5-(trifluoromethyl)phenyl)-benzamide]",2.1 ± 0.9,0.33±0.12,
"COc1ccc(C(=O)Nc2cc(-n3cnc(C)c3)cc(C(F)(F)F)c2)cc1 [compound 17, 4-methoxy-N-(3-(4-methyl-1H-imidazol-1-yl)-5-(trifluoromethyl)phenyl)benzamide]",5.2 ± 0.4,0.42±0.03,
"Cc1ccc(C(=O)Nc2cc(-n3cnc(C)c3)cc(C(F)(F)F)c2)cc1 [compound 18, 4-methyl-N-(3-(4-methyl-1H-imidazol-1-yl)-5-(trifluoromethyl)phenyl)benzamide]",1.4 ± 0.7,0.59±0.06,
"Cc1cn(-c2cc(NC(=O)c3ccc(C(F)(F)F)cc3)cc(C(F)(F)F)c2)cn1 [compound 19, N-(3-(4-mefhyl-1H-imidazol-1-yl)-5-(trifluoromefhyl)phenyl)-4-(frifluoromethyl)-benzamide]",3.3 ± 1.2,0.59±0.10,
"Cc1cn(-c2cc(NC(=O)Cc3cccnc3)cc(C(F)(F)F)c2)cn1 [compound 21, N-(3-(4-methyl-1H-imidazol-1-yl)-5-(trifluoromethyl)phenyl)-2-(pyridin-3-yl)acetamide]",1.4 ± 0.3,0.21±0.07,
"Cc1cn(-c2cc(NC(=O)c3ccc(Cl)c4ccccc34)cc(C(F)(F)F)c2)cn1 [compound 31, 4-chloro-N-(3-(4-methyl-1H-imidazol-1-yl)-5-(trifluoromethyl)phenyl)-1-naphthamide]",1.8 ± 0.4,0.34±0.11,
"Nc1cc(-n2ccnc2)cc(C(F)(F)F)c1 [compound 33, 3-(1H-imidazol-1-yl)-5-(trifluoromethyl)aniline]",4.4 ± 0.9,,
"Nc1cc(-n2cccc2)cc(C(F)(F)F)c1 [compound 34, 3-(1H-pyrrol-1-yl)-5-(trifluoromethyl)aniline]",15 ± 7,0.23±0.15,
"Nc1cc(-n2cnc3ccccc32)cc(C(F)(F)F)c1 [compound 35, 3-(1H-benzo[d]imidazol-1-yl)-5-(trifluoromethyl)aniline]",2.4 ± 0.9,,
"O=C(Nc1cc(-n2cnc3ccccc32)cc(C(F)(F)F)c1)c1ccnc2ccccc12 [compound 36, N-(3-(1H-benzo[d]imidazol-1-yl)-5-(trifluoromethyl)phenyl)quinoline-4-carboxamide]",,,relative reporter activity (at 10 µM): (0.24±0.04 at 10 µM
"Cc1cnn(-c2cc(N)cc(C(F)(F)F)c2)c1 [compound 37, 3-(4-methyl-1H-pyrazol-1-yl)-5-(trifluoromethyl)aniline]",,,relative reporter activity (at 100 µM): (0.48±0.09 at 100 µM)
"Cn1cc(-c2cc(N)cc(C(F)(F)F)c2)cn1 [compound 38, 3-(1-methyl-1H-pyrazol-4-yl)-5-(trifluoromethyl)aniline]",9.5 ± 4.4,0.43±0.11,
"Nc1cc(-c2cn[nH]c2)cc(C(F)(F)F)c1 [compound 39, 3-(1H-Pyrazol-4-yl)-5-(trifluoromethyl)aniline]",,,relative reporter activity (at 50 µM): (0.35±0.06 at 50 µM)

SMILES,EC50 [µM],relative reporter activity [1],also measured
"Nc1cc(-c2cnoc2)cc(C(F)(F)F)c1 [compound 40, 3-(isoxazol-4-yl)-5-(trifluoromethyl)aniline]",3.2 ± 1.2,0.47±0.06,
"Cc1nn(C)c(C)c1-c1cc(N)cc(C(F)(F)F)c1 [compound 41, 3-(trifluoromethyl)-5-(1,3,5-trimethyl-1H-pyrazol-4-yl)aniline]",4.2 ± 0.9,0.34±0.09,
"Cc1noc(C)c1-c1cc(N)cc(C(F)(F)F)c1 [compound 42, 3-(3,5-dimethylisoxazol-4-yl)-5-(trifluoromethyl)aniline]",,,relative reporter activity (at 10 µM): (0.70±0.07 at 10 µM)
"Cc1cc(-c2cc(N)cc(C(F)(F)F)c2)n[nH]1 [compound 43, 3-(5-methyl-1H-pyrazol-3-yl)-5-(trifluoromethyl)aniline]",,,relative reporter activity (at 100 µM): (0.29±0.05 at 100 µM)
"Cn1cnc(-c2cc(N)cc(C(F)(F)F)c2)n1 [compound 44, 3-(1-methyl-1H-1,2,4-triazol-3-yl)-5-(trifluoromethyl)aniline]",,,relative reporter activity (at 100 µM): (0.63±0.04 at 100 µM)
"Cc1cc(-c2cc(N)cc(C(F)(F)F)c2)nn1C [compound 45, 3-(1,5-dimethyl-1H-pyrazol-3-yl)-5-(trifluoromethyl)aniline]",,,relative reporter activity (at 100 µM): (0.56±0.12 at 100 µM)
"Cc1cc(C(=O)Nc2cc(N)cc(C(F)(F)F)c2)nn1C [compound 46, N-(3-amino-5-(trifluoromethyl)phenyl)-1,5-dimethyl-1H-pyrazole-3-carboxamide]",11 ± 5,0.20±0.02,
"Cc1c(-c2cc(N)cc(C(F)(F)F)c2)cnn1C [compound 49, 3-(1,5-dimethyl-1H-pyrazol-4-yl)-5-(trifluoromethyl)aniline]",3.9 ± 1.6,0.49±0.11,
"Cc1nc(-c2cc(N)cc(C(F)(F)F)c2)cn1C [compound 50, 3-(1,2-dimethyl-1H-imidazol-4-yl)-5-(trifluoromethyl)aniline]",,,relative reporter activity (at 100 µM): (0.70±0.06 at 100 µM)
"Cn1cc(-c2cc(N)cc(C(F)(F)F)c2)c2ccccc21 [compound 51, 3-(1-Methyl-1H-indol-3-yl)-5-(trifluoromethyl)aniline]",9.1 ± 0.7,,
"Cn1cc(-c2cc(N)cc(C(F)(F)F)c2)c2cccnc21 [compound 52, 3-(1-methyl-1H-pyrrolo[2,3-b]pyridin-3-yl)-5-(trifluoromethyl)aniline]",3.5 ± 0.8,,
"Nc1cc(-c2nccs2)cc(C(F)(F)F)c1 [compound 53, 3-(thiazol-2-yl)-5-(trifluoromethyl)aniline]",,,relative reporter activity (at 100 µM): (0.63±0.10 at 100 µM)
"Cc1cnc(-c2cc(N)cc(C(F)(F)F)c2)s1 [compound 54, 3-(5-methylthiazol-2-yl)-5-(trifluoromethyl)aniline]",,,relative reporter activity (at 30 µM): (0.46±0.21 at 30 µM)
"Cc1ccc(-c2cc(N)cc(C(F)(F)F)c2)s1 [compound 55, 3-(5-methylthiophen-2-yl)-5-(trifluoromethyl)aniline]",,,relative reporter activity (at 30 µM): 2.2±0.6
"Cc1cc(C)c(-c2cc(N)cc(C(F)(F)F)c2)s1 [compound 56, 3-(3,5-dimethylthiophen-2-yl)-5-(trifluoromethyl)aniline]",,,relative reporter activity (at 50 µM): 3.4±0.3
"CC(=O)c1ccc(-c2cc(N)cc(C(F)(F)F)c2)s1 [compound 57, 1-(5-(3-amino-5-(trifluoromethyl)phenyl)thiophen-2-yl)ethan-1-one]",4.4 ± 1.6,,
"COC(=O)c1ccc(-c2cc(N)cc(C(F)(F)F)c2)s1 [compound 58, methyl 5-(3-amino-5-(trifluoromethyl)phenyl)thiophene-2-carboxylate]",3.5 ± 1.8,,
"Cc1cc(-c2cc(N)cc(C(F)(F)F)c2)cs1 [compound 59, 3-(5-methylthiophen-3-yl)-5-(trifluoromethyl)aniline]",,,relative reporter activity (at 30 µM): 2.8±0.5
